The values that follow come from US20260133203A1, “DETECTION OF FUMARATE-DERIVED MODIFICATION IN A TEST SAMPLE” (UNIVERSITY OF SOUTH CAROLINA, priority 2017, published 2026).

The subject of the assay is primary rat neurons. Put plainly: LC-MS/MS identification of succinated proteins in primary rat neurons. Type of assay: cell-based. The following applies: DMF-treated primary rat neurons, modified by DMF or MMF. The protocol:
Primary neurons from newborn rat brain cortices were isolated and cultured using an adaptation of methods described previously. Briefly, postnatal day 1 rats were sacrificed by decapitation, the brains were aseptically dissected, and cortices were separated from the rest of the brain in ice-cold Hibernate®-A medium (Life Technologies) containing 2% (v/v) B-27 supplement (Life Technologies) and 0.5 mM glutamine (InvitrogenTM). The tissue was minced in fragments of about 1 mm3 with a scalpel and subjected to digestion with 2 mg/ml papain (Worthington) in the supplemented Hibernate®-A medium for 20 minutes at 30° C. in a shaker incubator set at 100 rpm. […] After a centrifugation at 500 g for 5 min at room temperature, cells were resuspended in NeurobasalTM-A medium containing 0.5 mM glutamine, 2% B-27 supplement, and 5 ng/ml bFGF (InvitrogenTM); counted and plated on 24-well plates pretreated with 0.01% poly-L-lysine (Sigma-AldrichTM) at a density of 200,000 cells/well. […] The protein content in the different samples was determined by the Lowry assay. […] After gel extraction, the peptides were re-suspended in 1% acetic acid and analyzed on a DionexTM […] system (Thermo ScientificTM, Rockford, IL) coupled to an Orbitrap Velos ProTM mass spectrometer (Thermo ScientificTM, Rockford, IL). […]

SMILES strings stand for the structures. Counter-ions that a name gives are not always drawn.

On to `COC(=O)/C=C/C(=O)OC` [DMF, dimethyl fumarate], for which the “number of succinated proteins confirmed” value came to 4.
